Experimental findings from patent publication US20080159958A1, “DETERMINATION OF HISTAMINE-3 BIOACTIVITY” (Abbott Laboratories, priority 2006, published 2008) are described below.

In general, Ki refers to a measure of affinity in units of concentration, obtained from inhibition or displacement.

Read-outs that look alike come from different tables or passages of the source.

In experiment [1] the test system is rat 1-4 Hz EEG amplitude. The experiment is described as follows: Rat cortical EEG, H1R or H3R antagonist given alone (1-4 Hz amplitude). The format is in vivo. The note with it: rats, vs. vehicle control. Here is the method: (§1) All experiments have been approved by the Institutional Animal Care and Use Committee (IACUC) at Abbott Laboratories and are in strict accordance with the ethical guidelines for use of laboratory animals. All experiments were conducted with male adult CD-1 rats of the Sprague-Dawley strain (Charles River Laboratories, Portage, Mich.) with body weights in the range of 400-600 g. When the rats were not in the laboratory being tested, they were housed 1 per cage in a climate controlled room with 12 hour lights on, 12 hour lights off cycle and food provided ad-lib.
(§2) For anesthesia during surgical implantation of EEG recording electrodes, rats are administered Nembutal (Abbott Laboratories) […] ip. After achieving a deep, stable plane of anesthesia, scalp hair is removed using electric clippers and the rat is placed into the ear and incisor bars of a stereotaxic instrument to immobilize the head. The scalp is disinfected with povidone iodine, and an incision is placed longitudinally along the midline of the scalp and the tissue retracted from the skull with a blunt probe. EEG recording electrodes are bilaterally implanted over the parietal (−2.0 mm anterior-posterior, 4.0 mm lateral from bregma) and frontal (+2.0 mm anterior-posterior, 3.0 mm lateral from bregma) cortices. A reference electrode was placed 11.0 mm posterior to bregma along the centerline (0.0 mm lateral). Cortical surface electrodes consist of stainless steel screws (size #90-00) soldered to a fine wire and a miniature electrical socket. To implant the electrodes, small holes are drilled (#60 bit) into the skull, taking care not to damage the dura with the drill bit. […] Once in place, the electrodes along with the miniature connector are permanently affixed to the skull with acrylic dental cement. The rats are given a 10-14 day recovery period from the surgery before experiments are conducted.
The EEG was recorded from rats inside sound-attenuating chambers (Med Associates Inc, St. Albans, Vt.). Before any pharmacological experiments began, implanted rats were habituated to the EEG recording chambers for 2-5 hours on 5 consecutive days. When placed into the recording chambers, a flexible cable is attached to the miniature connector implanted on the rats. This cable allows the rat unrestricted movement within the chambers during the recording session. EEG amplifiers (AM Systems, Inc., Carlsborg, Wash.) and a computer-based data acquisition system (Datawave Inc., Berthoud, Colo.) were used to acquire (256 Hz sampling rate) and analyze data. All experiments and habituation sessions were conducted during the light phase of the circadian cycle.
Dose response effects on EEG were determined for the H3R antagonist Compound 1 (0.01-1.0 mg/kg), ABT-239 (0.1-3.0 mg/kg), and thioperamide (3.0-30.0 mg/kg). […] Dose response effects on EEG were also determined for the H1 antagonist diphenhydramine (1.0-10.0 mg/kg). […] Each rat received a vehicle control treatment (placebo), and all doses of the test compounds. All treatments were administered by the intraperitoneal (i.p.) route of administration. The treatments were administered in a random order on different days with one treatment per day, and at least 2 days between treatments. This within subjects design allowed each rat to serve as its own control. EEG recordings were begun within 10 minutes after injection and recording sessions lasted for 120 minutes. The time of day for injections and subsequent recordings were between 10:00 AM and 2:00 PM.
(§3) Assessment of cortical low frequency EEG amplitude in the 1-4 Hz band (delta) was used as an electrophysiological measure of H1R and H3R antagonist activity in rats. The average 1-4 Hz EEG amplitude in microvolts (μV) was determined for 10 second epochs using Fast Fourier Transform (FFT) analysis. To determine the average 1-4 Hz EEG amplitude for the first 60 minutes of the recording, 360-10 sec FFT analyzed epochs were averaged together. […]

For experiment [2], the target named is rat histamine H3 receptor (Rattus norvegicus, UniProt Q9QYN8). Put plainly: Competition binding assay with [3H]-N-α-methylhistamine, rat H3 receptor.
rat histamine H3 receptor, sequence (Q9QYN8 whole entry): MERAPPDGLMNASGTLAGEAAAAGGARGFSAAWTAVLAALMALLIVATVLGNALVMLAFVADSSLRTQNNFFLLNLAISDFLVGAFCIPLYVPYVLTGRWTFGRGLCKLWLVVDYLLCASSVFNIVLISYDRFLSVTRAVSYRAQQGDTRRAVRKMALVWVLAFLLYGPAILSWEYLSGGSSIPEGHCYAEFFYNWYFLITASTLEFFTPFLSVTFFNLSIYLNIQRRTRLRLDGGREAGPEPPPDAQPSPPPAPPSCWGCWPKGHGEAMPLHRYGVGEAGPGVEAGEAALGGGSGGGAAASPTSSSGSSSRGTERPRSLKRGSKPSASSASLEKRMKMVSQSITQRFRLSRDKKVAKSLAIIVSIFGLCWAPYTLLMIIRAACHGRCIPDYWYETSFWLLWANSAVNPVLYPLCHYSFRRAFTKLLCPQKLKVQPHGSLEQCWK
Procedure: The rat and human H3 receptor was cloned and expressed in cells, and competition binding assays carried out, according to methods previously described (see Esbenshade, et al. Journal of Pharmacology and Experimental Therapeutics, vol. 313:165-175, 2005; Esbenshade et al., Biochemical Pharmacology 68 (2004) 933-945; Krueger, et al. Journal of Pharmacology and Experimental Therapeutics, vol. 314:271-281, 2005. Membranes were prepared from C6 or HEK293 cells, expressing the rat histamine H3 receptor, by homogenization on ice in TE buffer (50 mM Tris-HCl buffer, pH 7.4, containing 5 mM EDTA), 1 mM benzamidine, 2 μg/ml aprotinin, 1 μg/ml leupeptin, and 1 μg/ml pepstatin. The homogenate was centrifuged at 40,000 g for 20 minutes at 4° C. This step was repeated, and the resulting pellet was resuspended in TE buffer. Aliquots were frozen at −70° C. until needed. On the day of assay, membranes were thawed and diluted with TE buffer.
Membrane preparations were incubated with [^3H]-N-α-methylhistamine (0.5-1.0 nM) in the presence or absence of increasing concentrations of ligands for H3 receptor competition binding. […] Bound radiolabel was determined by liquid scintillation counting. For all of the radioligand competition binding assays, IC50 values and Hill slopes were determined by Hill transformation of the data and pKi values were determined by the Cheng-Prusoff equation.
For experiment [3], the system named is diphenhydramine-induced increase of rat 1-4 Hz EEG amplitude. The experiment is described as follows: Rat cortical EEG, H3R antagonist co-administered with diphenhydramine (1-4 Hz amplitude). It is filed as in vivo. The note with it: rats. Here is the method: as §1, §2
The EEG was recorded from rats inside sound-attenuating chambers (Med Associates Inc, St. Albans, Vt.). Before any pharmacological experiments began, implanted rats were habituated to the EEG recording chambers for 2-5 hours on 5 consecutive days. When placed into the recording chambers, a flexible cable is attached to the miniature connector implanted on the rats. This cable allows the rat unrestricted movement within the chambers during the recording session. […]
as §3

The target of experiment [4] is T1, human H3 receptor (Homo sapiens, UniProt Q9Y5N1).
T1 construct: expressed in transfected cells
T1 sequence (Q9Y5N1 whole entry): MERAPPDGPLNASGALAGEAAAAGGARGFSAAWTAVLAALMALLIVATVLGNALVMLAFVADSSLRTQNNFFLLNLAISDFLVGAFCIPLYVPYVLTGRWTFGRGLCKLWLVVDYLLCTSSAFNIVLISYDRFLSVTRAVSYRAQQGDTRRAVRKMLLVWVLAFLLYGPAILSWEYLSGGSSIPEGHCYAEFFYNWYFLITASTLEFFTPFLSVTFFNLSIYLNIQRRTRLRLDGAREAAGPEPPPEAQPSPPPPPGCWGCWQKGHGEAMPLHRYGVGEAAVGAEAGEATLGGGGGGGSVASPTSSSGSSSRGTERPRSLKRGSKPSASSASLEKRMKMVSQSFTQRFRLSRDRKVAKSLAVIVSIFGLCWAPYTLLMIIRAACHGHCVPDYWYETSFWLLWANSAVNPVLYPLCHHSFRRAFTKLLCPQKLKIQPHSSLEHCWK
The experiment is described as follows: Competition binding assay with [3H]-N-α-methylhistamine, human H3 receptor. The note with it: cloned human H3 receptor, cell membranes. Here is the method:
Membrane preparations were incubated with [^3H]-N-α-methylhistamine (0.5-1.0 nM) in the presence or absence of increasing concentrations of ligands for H3 receptor competition binding.

Take `S=C(NC1CCCCC1)N1CCC(c2c[nH]cn2)CC1` [Compound 3, N-cyclohexyl-4-(1H-imidazol-4-yl)piperidine-1-carbothioamide]: the “effect on average amplitude of 1-4 Hz EEG, given alone” value (from here on “effect on average amplitude”) in experiment [1] (30.0 mg/kg i.p., first hour after injection) was “lower the average amplitude of 1-4 Hz EEG”; in experiment [1] (3.0-10. mg/kg i.p., first hour), “did not produce significant lowering”. Moreover, the Ki in experiment [2] (read-out: rat H3 Ki, cloned rat H3 receptor, C6 or HEK293 cell membranes) turned out to be 3.6 nM. The “effect on diphenhydramine-induced increase of average 1-4 Hz EEG amplitude” value in experiment [3] (3.0 mg/kg i.p. given 15 minutes before diphenhydramine 10.0 mg/kg i.p.) was “significantly reduces”.

`C[C@@H]1CCCN1CCc1cc2cc(-c3ccc(C#N)cc3)ccc2o1` [Compound 2, 4-(2-[2-((R)-2-methyl-pyrrolidin-1-yl)-ethyl]-benzofuran-5-yl}-benzonitrile]: the “effect on average amplitude” value was “trend toward a decrease” in experiment [1] (3.0 mg/kg i.p., first hour) and “did not produce statistically significant lowering” in experiment [1] (0.1-3.0 mg/kg i.p., first hour). In experiment [3] (0.3 mg/kg i.p. given 15 minutes before diphenhydramine 10.0 mg/kg i.p.), the “effect on diphenhydramine-induced increase of average 1-4 Hz EEG amplitude” value is on record as “significantly reduces”.

Regarding `CN1C[C@H]2CCN(c3ccc(-c4ccc(-n5ncccc5=O)cc4)cc3)[C@H]2C1` [Compound 1, (3aR, 6aR)-2-[4′-(5-methyl-hexahydro-pyrrolo[3,4-b]pyrrol-1-yl)-biphenyl-4-yl]-2H-pyridazin-3-one], the Ki was determined as 1.9 nM in experiment [4] and 8.1 nM in experiment [2]. Also, the “effect on average amplitude” value in experiment [1] (1.0 mg/kg i.p., first hour after injection) is “lower the average amplitude of 1-4 Hz EEG”; in experiment [1] (0.01-0.1 mg/kg i.p., first hour), “did not produce significant lowering”. Moreover, the “effect on diphenhydramine-induced increase of average 1-4 Hz EEG amplitude” value is reported as “did not achieve statistical significance” in experiment [3] (0.01 mg/kg i.p. given 15 minutes before diphenhydramine 10.0 mg/kg i.p.); “significantly reduces” in experiment [3] (0.03 mg/kg and 0.1 mg/kg i.p. given 15 minutes before diphenhydramine 10.0 mg/kg i.p.).

Regarding `CN(C)CCOC(c1ccccc1)c1ccccc1` [diphenhydramine], the “effect on average amplitude” value in experiment [1] (10.0 mg/kg i.p., first hour) is “significantly increased”; in experiment [1] (1.0-3.0 mg/kg i.p., first hour), “not significantly different from vehicle control”.
